Data as given in patent publication US20120094919A1, “USE OF TRIPEPTIDES” (priority 2009, published 2012).

Assays:
Assay type in all cases: cell-based
Details in all cases: 3 days incubation
[1] = test system: Hyaluronan synthesis in normal human fibroblasts (NHF); assay: Hyaluronan synthesis in normal human fibroblasts (Hyaluronan Assay Kit)
Protocol: Normal human fibroblasts (NHF) were seeded in 96 well cell culture plates (Nunclon). After three days of growth a tripeptide derivative of the present invention was added in medium without FCS and the cells were incubated for an additional three days. Secreted Hyaluronan synthesis in the growth medium was measured using the Hyaluronan Assay Kit from Echelon (Salt Lake City, Utah).
(§1) The results were evaluated relative to a control consisting of cells that have not been treated with the tripeptide derivative of formula (I) and which is set to 100%.

[2] = test system: Decorin synthesis in normal human fibroblasts (NHF); assay: Decorin synthesis in normal human fibroblasts (EIA)
Protocol: (§2) Normal human fibroblasts (NHF) were grown in 96 well cell culture plates (Nunclon). After three days a tripeptide derivative of the present invention was added in medium without FCS and the cells were incubated for an additional three days. To measure Decorin synthesis an enzyme linked immunoassay (EIA) was performed. In brief: the cells were fixed with 4% paraformaldehyde, and permeabilized with 0.5 Triton-X100 followed by blocking of unspecific binding sites with 5% skim milk. To stain for Decorin the cells were incubated with goat-anti-Decorin antibody (R&Dsystems) which was detected with rabbit-anti-goat HRP conjugated (Pierce) secondary antibody. After addition of substrate Decorin synthesis was measured at 492 nm in an absorbance plate reader (Multiskan Ascent, Thermolabsystems).
as §1

[3] = test system: Lumican synthesis in normal human fibroblasts (NHF); assay: Lumican synthesis in normal human fibroblasts (EIA)
Protocol: as §2, with “well” for “well cell”, “Lumican” for “Decorin”, “goat-anti-Lumican (L-20)” for “goat-anti-Decorin”, “(Santa Cruz Biotechnology, sc-27718)” for “(R&Dsystems)”, “[…]” for “rabbit-anti-goat”
as §1

[4] = 100 μM, relative to untreated control
[5] = 25 μM, untreated control = 100%
[6] = 50 μM, untreated control = 100%
[7] = 10 μM, untreated control = 100%
[8] = 12.5 μM, untreated control = 100%

## Caprinoyl-Lys-Val-Lys-OH*2TFA [Tripeptide No 13]
[1]; [4]
  Synthesis Stimulation of Hyaluronan: inactive
[2]; [4]
  Synthesis Stimulation of Decorin: inactive
[3]; [4]
  Synthesis Stimulation of Lumican: inactive

## H-Lys-Val-Lys-OH *3 TFA [Tripeptide No 15]
[1]; [4]
  Synthesis Stimulation of Hyaluronan: inactive
[2]; [4]
  Synthesis Stimulation of Decorin: inactive
[3]; [4]
  Synthesis Stimulation of Lumican: inactive

## Lauroyl-Lys-Val-Lys-OH*2TFA [Tripeptide No 12]
[1]; [4]
  Synthesis Stimulation of Hyaluronan: inactive
[2]; [4]
  Synthesis Stimulation of Decorin: inactive
[3]; [4]
  Synthesis Stimulation of Lumican: inactive

## Myristoyl-Lys-Val-Lys-OH*2TFA [Tripeptide No 11]
[1]; [4]
  Synthesis Stimulation of Hyaluronan: inactive
[2]; [4]
  Synthesis Stimulation of Decorin: inactive
[3]; [4]
  Synthesis Stimulation of Lumican: inactive

## Palm-Lys-Ile-Dab-OH *2TFA [Tripeptide No 4]
[1]; [5]
  Synthesis Stimulation of Hyaluronan: 180%

## Palm-Lys-Leu-Dab-OH *2TFA [Tripeptide No 6]
[1]; [6]
  Synthesis Stimulation of Hyaluronan: 220%

## Palm-Lys-Leu-Lys-OH *2 TFA [Tripeptide No 3]
[1]; [5]
  Synthesis Stimulation of Hyaluronan: 180%

## Palm-Lys-Nva-Dab-OH *2TFA [Tripeptide No 5]
[1]; [5]
  Synthesis Stimulation of Hyaluronan: 220%

## Palm-Lys-Val-Dab-NH-Hexadecyl *2 TFA [Tripeptide No 7]
[1]; [5]
  Synthesis Stimulation of Hyaluronan: 300%

## Palm-Lys-Val-Dab-OH *2 TFA [Tripeptide No 18]
[1]; [4]
  Synthesis Stimulation of Hyaluronan: inactive
[2]; [4]
  Synthesis Stimulation of Decorin: inactive
[3]; [4]
  Synthesis Stimulation of Lumican: inactive

## Palm-Lys-Val-Dap-OH *2 TFA [Tripeptide No 17]
[1]; [4]
  Synthesis Stimulation of Hyaluronan: inactive
[2]; [4]
  Synthesis Stimulation of Decorin: inactive
[3]; [4]
  Synthesis Stimulation of Lumican: inactive

## Palm-Lys-Val-Lys-OH *2 TFA [Tripeptide No 1]
[1]; [7]
  Synthesis Stimulation of Hyaluronan: 220%
[2]; [5]
  Synthesis Stimulation of Decorin: 200%/25 μM
[3]; [7]
  Synthesis Stimulation of Lumican: 120%

## Palm-Lys-Val-Orn-OH *2 TFA [Tripeptide No 16]
[1]; [4]
  Synthesis Stimulation of Hyaluronan: inactive
[2]; [4]
  Synthesis Stimulation of Decorin: inactive
[3]; [4]
  Synthesis Stimulation of Lumican: inactive

## Palm-Orn-Val-Lys-OH *2 TFA [Tripeptide No 2]
[1]; [6]
  Synthesis Stimulation of Hyaluronan: 180%

## Stearoyl-Lys-Val-Lys-OH*2TFA [Tripeptide No 14]
[1]; [4]
  Synthesis Stimulation of Hyaluronan: inactive
[2]; [4]
  Synthesis Stimulation of Decorin: inactive
[3]; [4]
  Synthesis Stimulation of Lumican: inactive

## Tetradecyl-NH—C(O)-Arg-Val-Arg-OH *2 TFA [Tripeptide No 10]
[1]; [5]
  Synthesis Stimulation of Hyaluronan: 220%

## Tetradecyl-NH—C(O)-Dab-Val-Dab-OH *2 TFA [Tripeptide No 8]
[1]; [8]
  Synthesis Stimulation of Hyaluronan: 400%
[2]; [8]
  Synthesis Stimulation of Decorin: 170%
[3]; 100 μM, untreated control = 100%
  Synthesis Stimulation of Lumican: 165%/100 μM

## Tetradecyl-NH—C(O)-Lys-Ile-Dab-OH *2 TFA [Tripeptide No 9]
[1]; [5]
  Synthesis Stimulation of Hyaluronan: 220%
